Laboratory results from patent publication US7786107B2, “Modulators of muscarinic receptors” (Vertex Pharmaceuticals Incorporated, priority 2006, dated 2010).

Tests used:
M4 muscarinic receptor = biological target: T1, M4 muscarinic receptor (Homo sapiens, UniProt P08173); assay: Functional mobilization of intracellular calcium (FLIPR) in CHO cells expressing M4; assay type: cell-based; details: for EC50: CHO cells expressing M4, calcium mobilization; for Emax: CHO, 100% efficacy is the maximum response obtained with the Carbachol control
T1 construct: expressed in transfected cells; host or cells: CHO
T1 sequence (P08173 1-479): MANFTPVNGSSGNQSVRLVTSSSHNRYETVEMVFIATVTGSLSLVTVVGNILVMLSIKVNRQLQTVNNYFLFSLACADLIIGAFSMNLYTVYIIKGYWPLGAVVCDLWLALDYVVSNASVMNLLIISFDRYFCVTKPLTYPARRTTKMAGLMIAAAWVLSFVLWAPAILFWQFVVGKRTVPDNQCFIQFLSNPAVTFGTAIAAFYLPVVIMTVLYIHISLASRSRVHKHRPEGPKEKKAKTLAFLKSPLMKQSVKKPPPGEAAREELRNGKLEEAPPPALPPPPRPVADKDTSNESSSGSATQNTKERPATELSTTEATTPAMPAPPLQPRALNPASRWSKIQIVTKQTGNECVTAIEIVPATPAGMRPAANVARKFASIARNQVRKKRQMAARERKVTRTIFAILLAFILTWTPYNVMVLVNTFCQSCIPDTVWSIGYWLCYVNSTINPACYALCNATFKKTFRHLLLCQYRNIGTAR
Procedure: (§1) Functional Mobilization of Intracellular Calcium to Determine Muscarinic Receptor Activity:
(§2) CHO cells expressing muscarinic receptors (M1 to M5) are grown as monolayers in tissue culture flasks at 37° C. in a humidified atmosphere containing 5% CO2 and passaged every 3-5 days. The growth media is Dulbecco's modified eagles medium (DMEM, Gibco Cat#12430-054), containing 25 mM Hepes and supplemented with Fetal Bovine Serum (Hyclone, Cat#SH30071.03), 0.1 mM of MEM non-essential amino acids (GIBCO, Cat#11140-050), 1 mM MEM Sodium Pyruvate (GIBCO Cat#11360-070) and 100 units/ml of Penicillin G and 100 μg/ml of Streptomycin (GIBCO Cat#15140-122). The recombinant muscarinic receptor cell lines are grown under antibiotic pressure with media containing 25 μg/ml zeocin and 500 μg/ml G418 (MI-CHO), 4 μg/ml puromycin, 50 μg/ml zeocin and 2.5 μg/ml blasticidin (M2 and M4-CHO) or 50 μg/ml zeocin and 4 μg/ml puromycin (M3 and M5-CHO).
(§3) Cells are harvested at 80-90% confluence using Versene (GIBCO Cat#15040-066), collected by centrifugation and seeded 18-24 hours prior to running the calcium assay at a density of 5,000-10,000 cells/well in […], clear-bottomed 384-well plates (BD Biocoat, poly-D-lysine, Cat#356663). The day of the experiment, the cells are washed with a plate washer (Bioteck Instruments, ELX 405) using bath 1 buffer (140-mM NaCl, 4.5-mM KCl, 2-mM CaCl2, 1-mM MgCl2, 10-mM Hepes-Na, 10-mM Glucose, pH 7.4, with NaOH) containing 1 mM Probenecid. Next, the calcium dye Fluo-3 (25 μl well of Fluo-3 AM at 4 μM, Molecular Probes F-1241, in Bath 1 buffer containing 1 mM Probenecid) is added to the 25 μl of Bath 1 remaining in each well after the plate wash and the dye is loaded at 37° C. in the tissue culture incubator for 60-90 min. The fluorescent dye is removed using the plate washer with Bath 1 containing 1 mM Probenecid, leaving 25 μl/well of this solution after the wash. Alternatively, cells can be loaded with the calcium indicator from Molecular Devices (Calcium 3 Assay Reagents, Cat #R7181) adding 5 μl of a 5× solution dye in Bath 1 containing 1 mM Probenecid (10 ml per dye flask cat#R7182 to generate a solution 20×) to 20 μl of the same buffer. After loading for 60 min, the experiment can be run without having to remove the dye.
(§4) Compounds are prepared at a 2× fold concentration in a 96-well plate (round bottom, Costar Corning cat#3656), by reconstituting the pre-spotted compounds in bath 1 containing 1 mM probenecid. The final concentration DMSO is 0.5%, and the amount of DMSO is normalized across the assay plate. To determine an agonist action of the compounds on muscarinic receptors, the reconstituted compounds are added (25 μl compound/well) to the cell assay plate (containing 25 μl/well) using the multi-channel robotic system of the FLIPR 3 Instrument (Molecular Devices, Sunnyvale, Calif.). To determine a functional inhibitory action of the compounds on muscarinic receptors, the reconstituted compounds are added (25 μl compound/well) to the assay plate and pre-incubated for 15 min prior to adding 25 μl of Carbachol at 3× the EC80 for each muscarinic subtype. Alternatively, the compounds can be co-applied simultaneously with the agonist. In both assay modes, the fluorescence is recorded for 60 sec (excitation wavelength is […] and emission wavelength 540 nm) using the FLIPR 3 instrument.
(§5) The potency, efficacy and selectivity of the muscarinic compounds were evaluated by screening the compound activity across the whole family (M1 to M5 cells). Compounds were also screened for activity on other proteins such as other GPCRs and ion channels to determine selectivity on M4 receptors.
(§6) Examples of activities and efficacies of the muscarinic compounds of formulae (I, I-A, and I-B) on modulating M1 and M4 receptors are shown below in Table 4. […]

M1 muscarinic receptor = biological target: T2, M1 muscarinic receptor (Homo sapiens, UniProt P11229); assay: Functional mobilization of intracellular calcium (FLIPR) in CHO cells expressing M1; assay type: cell-based; details: for EC50: CHO cells expressing M1, calcium mobilization; for Emax: CHO, 100% efficacy is the maximum response obtained with the Carbachol control
T2 construct: expressed in transfected cells; host or cells: CHO
T2 sequence (P11229 1-460): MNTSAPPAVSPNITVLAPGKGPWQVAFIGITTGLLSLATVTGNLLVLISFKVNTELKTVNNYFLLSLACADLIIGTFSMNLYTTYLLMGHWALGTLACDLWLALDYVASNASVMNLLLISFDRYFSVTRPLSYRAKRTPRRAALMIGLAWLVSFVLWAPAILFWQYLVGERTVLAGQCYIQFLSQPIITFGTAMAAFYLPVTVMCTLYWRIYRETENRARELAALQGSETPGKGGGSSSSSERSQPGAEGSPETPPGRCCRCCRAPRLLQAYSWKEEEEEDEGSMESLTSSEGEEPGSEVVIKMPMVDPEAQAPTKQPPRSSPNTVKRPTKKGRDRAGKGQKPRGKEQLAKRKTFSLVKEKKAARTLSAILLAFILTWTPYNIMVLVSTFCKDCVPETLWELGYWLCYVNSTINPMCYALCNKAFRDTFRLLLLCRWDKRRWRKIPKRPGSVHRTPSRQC
Procedure: as §1, §2, §3, §4, §5, §6

Structure (SMILES) | EC50 (M4 muscarinic receptor) | Emax (M4 muscarinic receptor) | EC50 (M1 muscarinic receptor) | Emax (M1 muscarinic receptor)
O=C1CCC2(CCN(C3C[C@@H]4CC[C@@H]3C4)CC2)c2ccccc2N1 (some centres unmarked) [Compound 1] | < 2000 nM | 25 to 100% | < 2000 nM | > 100%
NC(=O)N1CCCC2(CCN(CC3CC4C=CC3C4)CC2)c2ccccc21 (centres unmarked) [Compound 2] | < 2000 nM | 25 to 100% | 2000 to 10000 nM | < 25%
CN1C(=O)CCC2(CCN(CCC(C)(C)C)CC2)c2ccccc21 [Compound 3] | < 2000 nM | 25 to 100% | 2000 to 10000 nM | 25 to 100%
CCOC(=O)N1C2CCC1CC(N1CCC3(CCC(=O)Nc4ccccc43)CC1)C2 (centres unmarked) [Compound 4] | < 2000 nM | 25 to 100% | < 2000 nM | 25 to 100%
O=C1CCC2(CCN(CC3CC4C=CC3C4)CC2)c2ccccc2N1 (centres unmarked) [Compound 5] | < 2000 nM | 25 to 100% | 2000 to 10000 nM | 25 to 100%
NC(=O)N1CCCC2(CCN(C3CCCCCC3)CC2)c2ccccc21 [Compound 6] | > 10000 nM | < 25% | > 10000 nM | < 25%
CC(=O)N1CCCC2(CCN(CC3CCCCC3)CC2)c2ccccc21 [Compound 7] | 2000 to 10000 nM | < 25% | > 10000 nM | < 25%
CCOC(=O)N1CCC(N2CCC3(CCCN(C(N)=O)c4ccccc43)CC2)CC1 [Compound 8] | 2000 to 10000 nM | 25 to 100% | < 2000 nM | 25 to 100%
CC(=O)N1CCCC2(CCN(CC3CC4C=CC3C4)CC2)c2ccccc21 (centres unmarked) [Compound 9] | < 2000 nM | 25 to 100% | > 10000 nM | < 25%
CCOC(=O)N1C2CCC1CC(N1CCC3(CCCN(C(=O)N(C)C)c4ccccc43)CC1)C2 (centres unmarked) [Compound 10] | 2000 to 10000 nM | < 25% | > 10000 nM | < 25%
CN(C)C(=O)N1CCCC2(CCN(C3CCCCCC3)CC2)c2ccccc21 [Compound 11] | > 10000 nM | < 25% | > 10000 nM | < 25%
CN1C(=O)CCC2(CCN(C3CCCCCC3)CC2)c2ccccc21 [Compound 12] | < 2000 nM | 25 to 100% | 2000 to 10000 nM | 25 to 100%
CC(C)(C)CCN1CCC2(CCCN(C(N)=O)c3ccccc32)CC1 [Compound 13] | < 2000 nM | 25 to 100% | 2000 to 10000 nM | 25 to 100%
CCOC(=O)N1CCC(N2CCC3(CCCN(C(C)=O)c4ccccc43)CC2)CC1 [Compound 14] | < 2000 nM | 25 to 100% | < 2000 nM | 25 to 100%
CN(C)C(=O)N1CCCC2(CCN(CC3CC4C=CC3C4)CC2)c2ccccc21 (centres unmarked) [Compound 15] | < 2000 nM | 25 to 100% | > 10000 nM | < 25%
NC(=O)N1CCCC2(CCN(C3CC4CCC(C4)C3)CC2)c2ccccc21 (centres unmarked) [Compound 16] | < 2000 nM | 25 to 100% | 2000 to 10000 nM | 25 to 100%
CC(=O)N1CCCC2(CCN(C3C[C@@H]4CC[C@@H]3C4)CC2)c2ccccc21 (some centres unmarked) [Compound 17] | > 10000 nM | < 25% | > 10000 nM | < 25%
CCOC(=O)N1CCC(N2CCC3(CCC(=O)Nc4ccccc43)CC2)CC1 [Compound 18] | < 2000 nM | 25 to 100% | < 2000 nM | 25 to 100%
CN1C(=O)CCC2(CCN(C3CC4CCC(C4)C3)CC2)c2ccccc21 (centres unmarked) [Compound 19, 1′-(bicyclo[3.2.1.]octan-3-yl)-1-methyl-3,4-dihydrospiro[benzo[b]azepine-5,4′-piperidin]-2(1H)-one] | < 2000 nM | 25 to 100% | < 2000 nM | 25 to 100%
NC(=O)N1CCCC2(CCN(CC3CCCCC3)CC2)c2ccccc21 [Compound 20] | 2000 to 10000 nM | < 25% | > 10000 nM | < 25%
CCOC(=O)N1CCC(N2CCC3(CCC(=O)N(C)c4ccccc43)CC2)CC1 [Compound 21] | 2000 to 10000 nM | 25 to 100% | 2000 to 10000 nM | 25 to 100%
CCOC(=O)N1C2CCC1CC(N1CCC3(CCCN(C(N)=O)c4ccccc43)CC1)C2 (centres unmarked) [Compound 22] | < 2000 nM | 25 to 100% | < 2000 nM | 25 to 100%
CCOC(=O)N1CCC(N2CCC3(CCCN(C(=O)N(C)C)c4ccccc43)CC2)CC1 [Compound 23] | < 2000 nM | 25 to 100% | 2000 to 10000 nM | 25 to 100%
O=C1CCC2(CCN(C3CCCCCC3)CC2)c2ccccc2N1 [Compound 24, 1′-cycloheptyl-3,4-dihydrospiro[benzo[b]azepine-5,4′-piperidin]-2(1H)-one] | < 2000 nM | 25 to 100% | < 2000 nM | 25 to 100%
CN(C)C(=O)N1CCCC2(CCN(C3CC4CCC(C4)C3)CC2)c2ccccc21 (centres unmarked) [Compound 25] | < 2000 nM | 25 to 100% | > 10000 nM | < 25%
NC(=O)N1CCCC2(CCN(C3C[C@@H]4CC[C@@H]3C4)CC2)c2ccccc21 (some centres unmarked) [Compound 26] | > 10000 nM | < 25% | > 10000 nM | < 25%
CN(C)C(=O)N1CCCC2(CCN(CC3CCCCC3)CC2)c2ccccc21 [Compound 27] | > 10000 nM | < 25% | > 10000 nM | < 25%
CCOC(=O)N1C2CCC1CC(N1CCC3(CCCN(C(C)=O)c4ccccc43)CC1)C2 (centres unmarked) [Compound 28] | < 2000 nM | 25 to 100% | < 2000 nM | 25 to 100%
O=C1CCC2(CCN(C3CC4CCC(C4)C3)CC2)c2ccccc2N1 (centres unmarked) [Compound 29] | < 2000 nM | 25 to 100% | < 2000 nM | 25 to 100%
